Reference: ChEMBL document CHEMBL4396933, “Design, synthesis and biological evaluation of 3,5-dimethylisoxazole and pyridone derivatives as BRD4 inhibitors” (Bioorg Med Chem Lett, 2019)

What was measured:
[1] = target: T1, Bromodomain-containing protein 4 (Homo sapiens, UniProt O60885); assay: Inhibition of BRD4 (unknown origin) at 1 uM relative to control
[2] = test system: MV4-11; assay: Antiproliferative activity against human MV4-11 cells assessed as reduction in cell viability incubated for 72 hrs by CellTiter-Glo luminescent cell viability assay; format: functional, cell-based; settings: MV4-11, 72 h
[3] = target: T1, Bromodomain-containing protein 4; assay: Inhibition of BRD4 bromodomain 1/2 (unknown origin) by alphascreen assay
[4] = test system: HCT-116; assay: Antiproliferative activity against human HCT116 cells; format: functional, cell-based
[5] = test system: SW480; assay: Antiproliferative activity against human SW480 cells; format: functional, cell-based
[6] = test system: DU-145; assay: Antiproliferative activity against human DU145 cells; format: functional, cell-based
[7] = test system: CAPAN-1; assay: Antiproliferative activity against human Capan1 cells; format: functional, cell-based
[8] = test system: BT-474; assay: Antiproliferative activity against human BT474 cells; format: functional, cell-based
[9] = test system: L02; assay: Cytotoxicity against human LO2 cells at 0.5 to 40 uM incubated for 72 hrs by MTT assay; format: cell-based; settings: l02, 72 h
[10] = target: T1, Bromodomain-containing protein 4; assay: Inhibition of BRD4 in human MV4-11 cells assessed as downregulation of c-Myc protein expression incubated for 48 hrs by Western blot method; format: cell-based
[11] = test system: MV4-11; assay: Induction of cell cycle arrest in human MV4-11 cells assessed as increase in accumulation at G0/G1 phase incubated for 48 hrs by PI staining based flow cytometric analysis; format: functional

| SMILES | inhibition [1] [%] | IC50 [2] [µM] | IC50 [3] [µM] | also measured |
| --- | --- | --- | --- | --- |
| COc1cc(F)ccc1Nc1nn(C2CCCCO2)c2ccc(-c3c(C)noc3C)cc12 (centres undefined) | < 20 | 17.5 | – | – |
| CCOC(=O)Cn1ncc2ccc(-c3cc(NC)c(=O)n(C)c3)cc21 | – | 8.77 | 1.9 | – |
| CCNc1cc(-c2ccc3cnn(Cc4cc(OC)cc(OC)c4)c3c2)cn(C)c1=O | – | 2.59 | 1.81 | – |
| Cc1noc(C)c1-c1ccc(-n2ncc3ccc(-c4c(C)noc4C)cc32)c(Cl)c1 | 33 | 2.8 | – | – |
| CNc1cc(-c2ccc3cnn(CC4CCCCC4)c3c2)cn(C)c1=O | – | 2.69 | 1.81 | – |
| Cc1noc(C)c1-c1ccc2c(c1)c(Nc1ccc(F)cc1)nn2C1CCCCO1 (centres undefined) | < 20 | – | – | – |
| CNc1cc(-c2ccc3cnn(Cc4cc(OC)cc(OC)c4)c3c2)cn(C)c1=O | – | 0.19 to 0.2 | 0.55 | IC50 [4]: 2.9 µM; IC50 [5]: 7.4 µM; IC50 [6]: 2.6 µM; IC50 [7]: 3.8 µM; IC50 [8]: 8.6 µM |
| COc1cc(F)ccc1Nc1nn(C2CCCCO2)c2cc(-c3c(C)noc3C)ccc12 (centres undefined) | < 20 | 8.5 | – | – |
| CNc1cc(-c2ccc3cnn(Cc4ccc(OC)cc4)c3c2)cn(C)c1=O | – | 2.7 | 1.6 | – |
| CNc1cc(-c2ccc3cnn(Cc4ccc(C)cc4)c3c2)cn(C)c1=O | – | 3.28 | 1.6 | – |
| COc1cc(Nc2nn(C3CCCCO3)c3cc(-c4c(C)noc4C)ccc23)ccc1F (centres undefined) | < 20 | 9.3 | – | – |
| Cc1ccc(Cn2nc(Nc3ccc(C(F)(F)F)cc3)c3ccc(-c4c(C)noc4C)cc32)cc1 | < 20 | – | – | – |
| CNc1cc(-c2ccc3cnn(Cc4ccc(F)cc4)c3c2)cn(C)c1=O | – | 2.39 | 1.4 | – |
| Cc1noc(C)c1-c1ccc2c(Nc3ccc(F)cc3)n[nH]c2c1 | < 20 | 7.8 | – | – |
| Cc1noc(C)c1-c1ccc2c(Nc3ccc(Cl)cc3)nn(C3CCCCO3)c2c1 (centres undefined) | < 20 | 7.4 | – | – |
| CNc1cc(-c2ccc3cnn(Cc4ccc(C(F)(F)F)cc4)c3c2)cn(C)c1=O | – | 4.37 | 2.4 | – |

| SMILES | inhibition [1] [%] | IC50 [2] [µM] | IC50 [3] [µM] | also measured |
| --- | --- | --- | --- | --- |
| Cc1noc(C)c1-c1ccc2c(Nc3ccc(F)cc3)nn(C3CCCCO3)c2c1 (centres undefined) | < 20 | 9.9 | – | – |
| CNc1cc(-c2ccc3cnn(Cc4ccc(F)c(F)c4)c3c2)cn(C)c1=O | – | 0.32 | 0.86 | IC50 [4]: 3 µM; IC50 [5]: 8.4 µM; IC50 [6]: 4.8 µM; IC50 [7]: 3.7 µM; IC50 [8]: 8.8 µM; Activity [9]: Non-Toxic; inhibition [10]: Dose-dependent effect; Activity [11]: Dose-dependent effect |
| CNc1cc(-c2ccc3cnn(Cc4ccc(F)c([N+](=O)[O-])c4)c3c2)cn(C)c1=O | – | 0.13 | 0.8 | IC50 [4]: 2.6 µM; IC50 [5]: 10.1 µM; IC50 [6]: 3.4 µM; IC50 [7]: 4 µM; IC50 [8]: 6.5 µM |
| COc1ccc(Nc2nn(Cc3ccc(C)cc3)c3cc(-c4c(C)noc4C)ccc23)cc1 | < 20 | 11.9 | – | – |
| CNc1cc(-c2ccc3cnn(CC4CC4)c3c2)cn(C)c1=O | – | 3.45 | 1.96 | – |
| Cc1ccc(Cn2nc(Nc3ccc(F)cc3)c3ccc(-c4c(C)noc4C)cc32)cc1 | < 20 | – | – | – |
| Cc1sc2c(c1C)C(c1ccc(Cl)cc1)=N[C@@H](CC(=O)OC(C)(C)C)c1nnc(C)n1-2 | – | 0.06 to 0.09 | – | IC50 [4]: 0.4 µM; IC50 [5]: 14.1 µM; IC50 [6]: 0.2 µM; IC50 [7]: 0.8 µM; IC50 [8]: 1.7 µM |
| COc1ccc(CN2CC(c3ccc(O)cc3)c3cnc(-c4c(C)noc4C)nc32)cc1 (centres undefined) | < 20 | – | – | – |
| Cc1ccc(Cn2nc(Nc3ccc(C#N)cc3)c3ccc(-c4c(C)noc4C)cc32)cc1 | < 20 | 5.8 | – | – |
| CNc1cc(-c2ccc3cnn(Cc4ccc(OC)c(F)c4)c3c2)cn(C)c1=O | – | 4.98 | 1.4 | – |
| COc1ccc(Cn2nc(Nc3cccc(C(C)C)c3)c3ccc(-c4c(C)noc4C)cc32)cc1 | < 20 | 8.1 | – | – |
| CCNc1cc(-c2ccc3cnn(Cc4ccc(F)cc4)c3c2)cn(C)c1=O | – | 5.65 | 2.25 | – |
| COc1ccc(C)c(C2CN(Cc3ccc(F)cc3)c3nc(-c4c(C)noc4C)ncc32)c1 (centres undefined) | < 20 | – | – | – |
| COc1ccc(Cn2nc(Nc3ccc(F)cc3)c3ccc(-c4c(C)noc4C)cc32)cc1 | < 20 | 9.1 | – | – |
| COc1cc2cnn(Cc3ccc(F)cc3)c2cc1-c1c(C)noc1C | 45 | 1.9 | – | – |
